{"source": "paper PMC9267852", "about": "“Hepatic Expression of the Na^+-Taurocholate Cotransporting Polypeptide Is Independent from Genetic Variation” (International Journal of Molecular Sciences, 2022)", "format_in_all_cases": "cell-based", "key": {"[1]": {"biological_target": "T1, Na+-taurocholate cotransporting polypeptide (NTCP) (Homo sapiens, UniProt Q14973)", "T1 construct": "gene SLC10A1", "T1 sequence (Q14973 1-349)": "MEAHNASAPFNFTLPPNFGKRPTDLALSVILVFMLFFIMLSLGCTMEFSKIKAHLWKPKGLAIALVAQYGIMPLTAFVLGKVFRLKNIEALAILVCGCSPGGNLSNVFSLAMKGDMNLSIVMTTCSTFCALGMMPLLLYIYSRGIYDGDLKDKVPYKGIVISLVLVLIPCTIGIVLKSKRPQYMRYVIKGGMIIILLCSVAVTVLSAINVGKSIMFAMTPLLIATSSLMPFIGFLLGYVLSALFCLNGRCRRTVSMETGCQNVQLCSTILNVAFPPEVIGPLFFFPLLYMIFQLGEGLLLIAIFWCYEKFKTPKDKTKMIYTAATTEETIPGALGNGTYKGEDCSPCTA", "assay": "inhibition of [3H]taurocholate uptake in NTCP-expressing HEK cells; remdesivir also taken up sodium-dependently (Km […])"}, "[2]": {"biological_target": "T2, Na+-taurocholate cotransporting polypeptide (NTCP) (Homo sapiens, UniProt Q14973, R185C)", "T2 construct": "gene SLC10A1; NTCP-p.R185C, stably expressed in HEK cells", "T2 sequence (Q14973 1-349 R185C)": "T1 sequence (Q14973 1-349) with R185C", "assay": "inhibition of [3H]taurocholate uptake in NTCP-R185C-expressing HEK cells; sodium-dependent remdesivir uptake Km […]"}, "[3]": {"biological_target": "T3, Na+-taurocholate cotransporting polypeptide (NTCP) (Homo sapiens, UniProt Q14973, S213R)", "T3 construct": "gene SLC10A1; NTCP-p.S213R, stably expressed in HEK cells", "T3 sequence (Q14973 1-349 S213R)": "T1 sequence (Q14973 1-349) with S213R", "assay": "inhibition of [3H]taurocholate uptake in NTCP-S213R-expressing HEK cells; sodium-dependent remdesivir uptake Km […]"}}, "note": "Positions count from the first letter of the chain named.", "data": [{"compound": "CCC(CC)COC(=O)[C@H](C)N[P@](=O)(OC[C@H]1O[C@@](C#N)(c2ccc3c(N)ncnn23)[C@H](O)[C@@H]1O)Oc1ccccc1", "note": "[remdesivir]", "values": [{"measurement": "IC50", "setting": "[1]", "value": 90.3, "unit": "µM"}, {"measurement": "IC50", "setting": "[2]", "value": 65, "unit": "µM"}, {"measurement": "IC50", "setting": "[3]", "value": 63.1, "unit": "µM"}]}]}
